According to publication PMC5312968, “Structure, kinetic characterization and subcellular localization of the two ribulose 5-phosphate epimerase isoenzymes from Trypanosoma cruzi” (PLoS ONE, 2017):
Where “and” joins values, the source holds several entries; their conditions need not be identical. Equal values may be shown once.

Assays:
TcRPE1 = target: T1, TcRPE1 (Trypanosoma cruzi, UniProt Q4DBL0); assay: coupled enzyme assay (transketolase), spectrophotometric; type: biochemical; details: pH 7.25, 30°C, triethanolamine-HCl, 0.02–2 mM substrate; biphasic kinetics, authors give no constants
T1 construct: gene Tc00.1047053510257.30; full-length ORF of 735 bp, pET-22b(+), C-terminal His6 tag kept, E. coli BL21 codon Plus (DE3), subunit 27 kDa, monomer to octamer mixture
T1 sequence (Q4DBL0 1-244): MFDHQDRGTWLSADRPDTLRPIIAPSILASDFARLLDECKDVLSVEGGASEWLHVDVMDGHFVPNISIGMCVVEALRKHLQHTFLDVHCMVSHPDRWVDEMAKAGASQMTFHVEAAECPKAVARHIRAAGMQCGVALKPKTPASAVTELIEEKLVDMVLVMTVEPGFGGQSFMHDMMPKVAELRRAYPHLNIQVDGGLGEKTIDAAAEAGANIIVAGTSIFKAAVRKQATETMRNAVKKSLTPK

[1] = target: recombinant ribulose-5-phosphate epimerase 2 from Trypanosoma cruzi CL Brener clone (TcRPE2) (Trypanosoma cruzi CL Brener clone); assay: SEC-MALS; Superose 12 column with in-line multi-angle static and dynamic light scattering (SEC-FPLC-LS), room temperature, 50 mM Tris-HCl pH 7.6, 500 mM NaCl, 0.4 ml/min; mixture of oligomeric species of one protein

stoichiometry N [1]	Compound	coupled enzyme assay (transketolase), spectrophotometric (TcRPE1)
–	O=C(CO)[C@H](O)[C@H](O)COP(=O)(O)O [D-ribulose-5-phosphate]	TcRPE1 showed a very complex kinetic pattern to increasing concentrations of Ru5P
2 and 4	recombinant ribulose-5-phosphate epimerase 2 from Trypanosoma cruzi CL Brener clone (TcRPE2) (enzyme)	–
